Assay [1] deals with is-octβ2R W300^6.48A mutant. Description: TGFα shedding assay, mutant W300^6.48A. The assay is classed as cell-based, Ixodes scapularis. Particulars: Table S6. The protocol: (§1) The TGFα shedding assay was performed as previously described ([28]). […] The cells were transfected using lipofectamine 2000 with plasmids encoding alkaline phosphatase–tagged TGFα (AP-TGFα) (2.5 ng/mL), is-octβ2Rs (1 ng/mL), and Gαq/s (0.5 ng/mL). After 24 h, the cells were washed with phosphate-buffered saline and resuspended in Hank's balanced salt solution (HBSS) (supplemented with 5 mM HEPES [pH 7.4]). The cells (90 μL/well) were plated in a 96-well plate and incubated with 10 μL of HBSS solution containing various concentrations of compounds for 1 h at 37 °C. Following centrifugation (200 × g, 2 min), 80 μL of the supernatant was transferred to a separate 96-well plate. Subsequently, 80 µL of 2× para-nitrophenyl phosphate (pNPP) buffer (containing 10 mM pNPP in 40 mM Tris–HCl [pH 9.5], 40 mM NaCl, and 10 mM MgCl2) was added to both the supernatant and cell-containing plates. The optical density at 405 nm of both plates was measured before and after a 1 h incubation at room temperature using a microplate reader (SpectraMax iD3, Molecular Devices, San Jose, CA, United States). AP-TGFα release was calculated using the following formulas:
(§2) ΔOD405=OD450(1h)−OD405(0h)AP−TGFαinsupernatant(%)=(ΔOD405Sup/[ΔOD450Sup+ΔOD405Cell])×125AP−TGFαrelease(%)=AP−TGFαinsupernatantunderastimulatedcondition(%)−AP−TGFαinsupernatantunderavehicle−treatedcondition […]

Assay [2] deals with is-octβ2R Y332^7.43A mutant. The assay is described as follows: TGFα shedding assay, mutant Y332^7.43A. Type of assay: cell-based, Ixodes scapularis. Particulars: Table S6. Here is the method:
as §1, §2

In assay [3] the target is is-octβ2R F304^6.52A mutant (Ixodes scapularis, UniProt A0ACM8E5E8, F304A). The assay is described as follows: TGFα shedding assay, mutant F304^6.52A. Type of assay: cell-based. Particulars: Table S6. Here is the method:
as §1, §2

Assay [4] relates to is-octβ2R I118^3.40A mutant. The assay is described as follows: TGFα shedding assay, mutant I118^3.40A. Type of assay: cell-based, Ixodes scapularis. As to conditions: Table S6. Here is the method:
as §1, §2

Assay [5] deals with is-octβ2R F303^6.51A mutant. Description: TGFα shedding assay, mutant F303^6.51A. Particulars: Table S6. The assay is classed as cell-based, Ixodes scapularis. Here is the method: as §1, §2
Assay [6] concerns the target is-octβ2R S203^5.46A mutant (Ixodes scapularis, UniProt A0ACM8E5E8, S203A). The assay is described as follows: TGFα shedding assay, mutant S203^5.46A. Type of assay: cell-based. Here is the method:
as §1, §2

In assay [7] the test system is is-octβ2R Y195^5.38A mutant. Description: TGFα shedding assay, mutant Y195^5.38A. The assay is classed as cell-based, Ixodes scapularis. As to conditions: Table S6. The protocol:
as §1, §2

Assay [8] concerns is-octβ2R D110^3.32N mutant. The assay is described as follows: TGFα shedding assay, mutant D110^3.32N. Type of assay: cell-based, Ixodes scapularis. Particulars: Table S6. Here is the method: as §1, §2
Assay [9] has as its target is-octβ2R V111^3.33A mutant (Ixodes scapularis, UniProt A0ACM8E5E8, V111A). The assay is described as follows: TGFα shedding assay, mutant V111^3.33A. The assay is classed as cell-based. The protocol: as §1, §2
The target in assay [10] is T1, is-octβ2R Y215^5.58H mutant (Ixodes scapularis, UniProt A0ACM8E5E8, Y215H).
T1 sequence (A0ACM8E5E8 1-384 Y215H): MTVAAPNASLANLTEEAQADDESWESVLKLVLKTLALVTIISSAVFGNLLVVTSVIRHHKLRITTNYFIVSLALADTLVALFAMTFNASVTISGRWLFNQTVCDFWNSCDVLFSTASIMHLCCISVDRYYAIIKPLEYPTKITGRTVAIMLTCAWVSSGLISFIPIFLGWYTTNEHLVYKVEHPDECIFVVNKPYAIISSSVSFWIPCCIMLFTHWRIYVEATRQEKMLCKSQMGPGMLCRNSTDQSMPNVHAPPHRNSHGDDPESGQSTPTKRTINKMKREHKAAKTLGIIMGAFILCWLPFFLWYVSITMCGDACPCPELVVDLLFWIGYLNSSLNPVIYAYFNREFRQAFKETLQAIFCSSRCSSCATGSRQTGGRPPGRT
The assay is described as follows: TGFα shedding assay, amitraz-resistant mutant Y215^5.58H. The assay is classed as cell-based. The protocol:
as §1
(§3) ΔOD405=OD450(1h)−OD405(0h)AP−TGFαinsupernatant(%)=(ΔOD405Sup/[ΔOD450Sup+ΔOD405Cell])×125AP−TGFαrelease(%)=AP−TGFαinsupernatantunderastimulatedcondition(%)−AP−TGFαinsupernatantunderavehicle−treatedcondition
(§4) where OD405 (0 h) and […] represent the OD405 before and after a 1 h incubation, respectively, and OD405Sup and OD405Cell represent the OD405 of supernatant and cell plates, respectively. For all pharmacological analyses, nonlinear regression curve fitting was performed with a 3-parameter sigmoid model (Hill coefficient = 1) using Prism 8 (GraphPad Software, La Jolla, CA, United States).

Assay [11] has as its system is-octβ2R Y215^5.58H mutant. The assay is described as above. Type of assay: cell-based, Ixodes scapularis. Particulars: versus wild type. Here is the method:
as §1, §3, §4

The target in assay [12] is is-octβ2R S114^3.36A mutant (Ixodes scapularis, UniProt A0ACM8E5E8, S114A). The assay is described as follows: TGFα shedding assay, mutant S114^3.36A. Type of assay: cell-based. As to conditions: Table S6. The protocol: as §1, §2
For assay [13], the target named is T2, is-octβ2R N87^2.61S mutant (Ixodes scapularis, UniProt A0ACM8E5E8, N87S).
T2 sequence (A0ACM8E5E8 1-384 N87S): T1 sequence (A0ACM8E5E8 1-384 Y215H) with N87S, H215Y
Description: TGFα shedding assay, amitraz-resistant mutant N87^2.61S. The assay is classed as cell-based. Particulars: Table S4. Here is the method:
as §1, §3, §4

Assay [14] deals with is-octβ2R T115^3.37A mutant (Ixodes scapularis, UniProt A0ACM8E5E8, T115A). The assay is described as follows: TGFα shedding assay, mutant T115^3.37A. The assay is classed as cell-based. The protocol:
as §1, §2

Assay [15] deals with is-octβ2R F328^7.39A mutant (Ixodes scapularis, UniProt A0ACM8E5E8, F328A). Description: TGFα shedding assay, mutant F328^7.39A. Type of assay: cell-based. The protocol:
as §1, §2

Setting [16] is: Table S6, read-out: logEC50 (converted).

Substitutions are numbered along the chain they refer to. Read-outs that look alike come from different tables or passages of the source.

With `CN/C=N/c1ccc(C)cc1C` [DPMF, N-2,4-dimethylphenyl-N′-methylformamidine], the logEC50 entry is reported as “no activity” in assay [1]; “signal observed only at a concentration of 10^−5 M” in assay [2]; “no activity” in assay [4]; “no activity” in assay [5]; “no activity” in assay [7]; “no activity” in [8]. Further, the EC50 in assay [3] is 63.1 nM; in [6] (setting [16]), 1.26 nM; in [6] (read-out: EC50) it was 1.3 nM; in assay [9] (setting [16]) it was 251 nM; in [9] (read-out: EC50) it was 320 nM; in [10], 6.31 nM. For the same compound, the EC50 is 251 nM in [12], 7.94 nM in assay [13], 5.01 nM in assay [14] (setting [16]) and 5 nM in assay [14] (read-out: EC50). Also, the “change of EC50 by the Y215^5.58H mutation” value in assay [11] is “unaffected”. Further, the “reduction of maximal response (Emax) by the Y215^5.58H mutation” value in assay [11] is around 50%.

Take `NCC(O)c1ccc(O)cc1` (stereo not shown) [Octopamine, octopamine]: the logEC50 entry in assay [1] was “no activity”; in assay [2] it was “signal observed only at 10-5 M”; in [4] it was “no activity”; in [5], “no activity”; in [7], “no activity”; in [8], “no activity”. The EC50 in assay [3] is 398 nM; in assay [10] it was 15.8 nM; in [13], 10 nM; in assay [15] (setting [16]), 1000 nM; in assay [15] (stated as a range in text, read-out: EC50), around 1000 nM. Further, the “change of EC50 by the Y215^5.58H mutation” value in [11] is on record as 4 fold. Moreover, in assay [11], the “reduction of maximal response (Emax) by the Y215^5.58H mutation” value is listed as around 50%.
